Patent publication US20100323033A1, “CANCER SENSITIZER COMPRISING CHLOROGENIC ACID” (priority 2007, published 2010)

System: Human pancreatic carcinoma cell line AsPC-1 (doxorubicin resistant)
Test: XTT assay of anticancer agent sensitivity in doxorubicin-resistant AsPC-1 cells
Format: cell-based
Settings: 48 hrs, FIG. 1
Experimental: Human pancreatic carcinoma cell line AsPC-1 (doxorubicin resistant) was purchased from ATCC (American Type Culture Collection, Manassas, Va., USA). AsPC-1 cell lines were maintained in media supplemented with 10% fetal bovine serum (Gibco BRL) at 37° C. in a humid 5% CO2 atmosphere, and subcultured every two or three days. XTT assay was conducted to examine whether chlorogenic acid increases the anticancer agent sensitivity. A modified MTT assay, XTT assay is a colorimetric method that determines the relative number of living cells, after treating cells with a compound degraded by a specific enzyme. AsPC-1 cells were seeded in 96-well plates (2×10^4 per well), and cultured for 24 hrs. The cells were treated with 0, 5, and 10 μM of doxorubicin, and 0, 5, 10, and […] of chlorogenic acid, and incubated for 48 hrs. 0.1 ml of active solution and 5 ml of XTT (2,3-Bis{2-methoxy-4-nitro-5[(sulfenylamino) carbonyl]-2H-tetrazolium-hydroxide}) were added to the 96-well plates, and 50 μl of reaction solution was added to each well, followed by incubation for 2 hrs. The plates were gently shaken for staining, and the absorbance was measured at 450 nm using a VERSAmax220 Automatic Microplate Reader (Molecular Devices Corp.).

O=C(/C=C/c1ccc(O)c(O)c1)O[C@@H]1C[C@](O)(C(=O)O)C[C@@H](O)[C@H]1O [chlorogenic acid, 3-[[3-(3,4-dihydroxyphenyl)-1-oxo-2-propenyl]oxy]-1,4,5-trihydroxycyclohexanecarboxylic acid]
dependence of cancer cell viability on chlorogenic acid concentration (combination with doxorubicin): decreased, as the concentration of chlorogenic acid was increased | decrease of viability of cancer cells with chlorogenic acid plus anticancer agent, compared to anticancer agent alone (doxorubicin 0, 5, 10 μM with chlorogenic acid 0, 5, 10, 20μ, absorbance 450 nm): 30%
